29 molecules from US10556883B2, “Benzenesulfonamide compounds, method for synthesizing same, and use thereof in medicine and cosmetics” (GALDERMA RESEARCH & DEVELOPMENT, priority 2016, dated 2020) can be followed below.

Each structure is given as a SMILES string. pIC50: −log10 of the molar value.

This assay deals with TNFα secretion from LPS stimulated frozen Peripheral Blood Mononuclear Cells (PBMC). The assay is described as follows: inhibition of TNFα secretion from LPS stimulated human PBMC (hPBMC assay). In kind it is cell-based. To be noted: LPS 1 μg/mL, overnight incubation, TNFα by HTRF. On the procedure: Activity of the compounds was investigated using human peripheral blood mononuclear cells (hPBMC). This assay was designed to measure the inhibition of the TNFα secretion from LPS stimulated frozen Peripheral Blood Mononuclear Cells (PBMC) isolated from human blood. TNFα levels were measured using HTRF® Human TNFα kit (Cisbio #62TNFPEC) which is a rapid and quantitative sandwich immunoassay based on TR-FRET technology.
Frozen PBMC were quickly thawed, resuspended in culture medium (RPMI 10% inactivated FBS) and viable cells were seeded in 96-well plates (50,000 cells/well). […] After overnight incubation at 37° C., 10 μL of cell supernatant were mixed with 5 μL of each tagged anti-TNFα specific antibody as recommended by the supplier. After 2 hours of incubation at room temperature, the HTRF® signals were measured using a microplate reader (wavelengths: excitation=337 nm, first emission=620 nm, second emission=665 nm).
In general terms: Time-resolved FRET reads energy transfer from a long-lived donor to a nearby acceptor.
`CC(=O)N1CC(CC(=O)NO)(NS(=O)(=O)c2ccc(OCc3cc(C)nc4ccccc34)cc2)C1` [Example 1, 2-(1-acetyl-3-((4-((2-methylquinolin-4-yl)methoxy)phenyl)sulfonamido)azetidin-3-yl)-N-hydroxyacetamide]: the pIC50 (in general, the negative decadic logarithm of the IC50, by convention in mol/L) was > 7.30.

As for `Cc1cc(COc2ccc(S(=O)(=O)NC3(CC(=O)NO)CN(C(=O)OC(C)(C)C)C3)cc2)c2ccccc2n1` [Example 2, Tert-butyl 3-(2-(hydroxyamino)-2-oxoethyl)-3-((4-((2-methylquinolin-4-yl)methoxy)phenyl)sulfonamido)azetidine-1-carboxylate], the pIC50 is > 7.30.

Molecule `CC(=O)N1CC(CC(=O)NO)(N(C)S(=O)(=O)c2ccc(OCc3cc(C)nc4ccccc34)cc2)C1` [Example 3, 2-(1-acetyl-3-((N-methyl-4-((2-methylquinolin-4-yl)methoxy)phenyl)sulfonamido)azetidin-3-yl)-N-hydroxyacetamide] showed a pIC50 of 6.00 to 6.30.

In the case of `Cc1cc(COc2ccc(S(=O)(=O)NC3(CC(=O)NO)CN(C(=O)CC(C)C)C3)cc2)c2ccccc2n1` [Example 4a, N-hydroxy-2-(1-(3-methylbutanoyl)-3-((4-((2-methylquinolin-4-yl)methoxy)phenyl)sulfonamido)azetidin-3-yl)acetamide], the pIC50 was > 7.30.

For `Cc1cc(COc2ccc(S(=O)(=O)NC3(CC(=O)NO)CN(C(=O)C(C)C)C3)cc2)c2ccccc2n1` [Example 4b, N-hydroxy-2-(1-isobutyryl-3-((4-((2-methylquinolin-4-yl)methoxy)phenyl)sulfonamido)azetidin-3-yl)acetamide], the pIC50 is > 7.30.

Regarding `Cc1cc(COc2ccc(S(=O)(=O)NC3(CC(=O)NO)CN(C(=O)C4CC4)C3)cc2)c2ccccc2n1` [Example 4c, 2-(1-(cyclopropanecarbonyl)-3-((4-((2-methylquinolin-4-yl)methoxy)phenyl)sulfonamido)azetidin-3-yl)-N-hydroxyacetamide], the pIC50 is > 7.30.

As for `Cc1cc(COc2ccc(S(=O)(=O)NC3(CC(=O)NO)CN(C(=O)C(C)(C)C)C3)cc2)c2ccccc2n1` [Example 4d, N-hydroxy-2-(3-((4-((2-methylquinolin-4-yl)methoxy)phenyl)sulfonamido)-1-pivaloylazetidin-3-yl)acetamide], the pIC50 is > 7.30.

For the molecule `CCCC(=O)N1CC(CC(=O)NO)(NS(=O)(=O)c2ccc(OCc3cc(C)nc4ccccc34)cc2)C1` [Example 4e, 2-(1-butyryl-3-((4-((2-methylquinolin-4-yl)methoxy)phenyl)sulfonamido)azetidin-3-yl)-N-hydroxyacetamide], the pIC50 is > 7.30.

On to `COCC(=O)N1CC(CC(=O)NO)(NS(=O)(=O)c2ccc(OCc3cc(C)nc4ccccc34)cc2)C1` [Example 4f, N-hydroxy-2-(1-(2-methoxyacetyl)-3-((4-((2-methylquinolin-4-yl)methoxy)phenyl)sulfonamido)azetidin-3-yl)acetamide], for which the negative-log IC50 (pIC50) was > 7.30.

`Cc1cc(COc2ccc(S(=O)(=O)NC3(CC(=O)NO)CN(C(=O)C4CCOCC4)C3)cc2)c2ccccc2n1` [Example 4g, N-hydroxy-2-(3-((4-((2-methylquinolin-4-yl)methoxy)phenyl)sulfonamido)-1-(tetrahydro-2H-pyran-4-carbonyl)azetidin-3-yl)acetamide]: the negative logarithm of the IC50 (pIC50) is > 7.30.

With `Cc1cc(COc2ccc(S(=O)(=O)NC3(CC(=O)NO)CN(C(=O)C4CCCC4)C3)cc2)c2ccccc2n1` [Example 4h, 2-(1-(cyclopentanecarbonyl)-3-((4-((2-methylquinolin-4-yl)methoxy)phenyl)sulfonamido)azetidin-3-yl)-N-hydroxyacetamide], the pIC50 is > 7.30.

Consider `CCC(CC)C(=O)N1CC(CC(=O)NO)(NS(=O)(=O)c2ccc(OCc3cc(C)nc4ccccc34)cc2)C1` [Example 4i, 2-(1-(2-ethylbutanoyl)-3-((4-((2-methylquinolin-4-yl)methoxy)phenyl)sulfonamido)azetidin-3-yl)-N-hydroxyacetamide], for which the pIC50 is > 7.30.

As to `Cc1cc(COc2ccc(S(=O)(=O)NC3(CC(=O)NO)CN(C(=O)C4CCCCC4)C3)cc2)c2ccccc2n1` [Example 4j, 2-(1-(cyclohexanecarbonyl)-3-((4-((2-methylquinolin-4-yl)methoxy)phenyl)sulfonamido)azetidin-3-yl)-N-hydroxyacetamide], the pIC50 is > 7.30.

For `CCOC(=O)N1CC(CC(=O)NO)(NS(=O)(=O)c2ccc(OCc3cc(C)nc4ccccc34)cc2)C1` [Example 5a, Ethyl 3-(2-(hydroxyamino)-2-oxoethyl)-3-((4-((2-methylquinolin-4-yl)methoxy)phenyl)sulfonamido)azetidine-1-carboxylate], the pIC50 is > 7.30.

As to `COC(=O)N1CC(CC(=O)NO)(NS(=O)(=O)c2ccc(OCc3cc(C)nc4ccccc34)cc2)C1` [Example 5b, methyl 3-(2-(hydroxyamino)-2-oxoethyl)-3-((4-((2-methylquinolin-4-yl)methoxy)phenyl)sulfonamido)azetidine-1-carboxylate], the pIC50 was > 7.30.

For the molecule `C=CCOC(=O)N1CC(CC(=O)NO)(NS(=O)(=O)c2ccc(OCc3cc(C)nc4ccccc34)cc2)C1` [Example 5c, allyl 3-(2-(hydroxyamino)-2-oxoethyl)-3-((4-((2-methylquinolin-4-yl)methoxy)phenyl)sulfonamido)azetidine-1-carboxylate], the pIC50 was > 7.30.

`Cc1cc(COc2ccc(S(=O)(=O)NC3(CC(=O)NO)CN(C(=O)OC(C)C)C3)cc2)c2ccccc2n1` [Example 5d, isopropyl 3-(2-(hydroxyamino)-2-oxoethyl)-3-((4-((2-methylquinolin-4-yl)methoxy)phenyl)sulfonamido)azetidine-1-carboxylate]: the pIC50 was > 7.30.

As for `CC(=O)N1CC(CC(=O)NO)(NS(=O)(=O)c2ccc(OCc3cc(C)nc4c(F)cccc34)cc2)C1` [Example 6, 2-(1-acetyl-3-((4-((8-fluoro-2-methylquinolin-4-yl)methoxy)phenyl)sulfonamido)azetidin-3-yl)-N-hydroxyacetamide], the pIC50 was 7.00 to 7.30.

On to `Cc1cc(COc2ccc(S(=O)(=O)NC3(C(=O)NO)CN(C(=O)C(C)(C)C)C3)cc2)c2ccccc2n1` [Example 7a, N-hydroxy-3-((4-((2-methylquinolin-4-yl)methoxy)phenyl)sulfonamido)-1-pivaloylazetidine-3-carboxamide], for which the pIC50 was 7.00 to 7.30.

Turning to `Cc1cc(COc2ccc(S(=O)(=O)NC3(C(=O)NO)CN(C(=O)CC(C)C)C3)cc2)c2ccccc2n1` [Example 7c, N-hydroxy-1-(3-methylbutanoyl)-3-((4-((2-methylquinolin-4-yl)methoxy)phenyl)sulfonamido)azetidine-3-carboxamide], the pIC50 is > 7.30.

`Cc1cc(COc2ccc(S(=O)(=O)NC3(C(=O)NO)CN(C(=O)C4CCOCC4)C3)cc2)c2ccccc2n1` [Example 7d, N-hydroxy-3-((4-((2-methylquinolin-4-yl)methoxy)phenyl)sulfonamido)-1-(tetrahydro-2H-pyran-4-carbonyl)azetidine-3-carboxamide]: the pIC50 was > 7.30.

In the case of `Cc1cc(COc2ccc(S(=O)(=O)NC3(C(=O)NO)CN(C(=O)C4CCC4)C3)cc2)c2ccccc2n1` [Example 7e, 1-(cyclobutanecarbonyl)-N-hydroxy-3-((4-((2-methylquinolin-4-yl)methoxy)phenyl)sulfonamido)azetidine-3-carboxamide], the pIC50 is > 7.30.

The molecule `CCC(CC)C(=O)N1CC(NS(=O)(=O)c2ccc(OCc3cc(C)nc4ccccc34)cc2)(C(=O)NO)C1` [Example 7f, 1-(2-ethylbutanoyl)-N-hydroxy-3-((4-((2-methylquinolin-4-yl)methoxy)phenyl)sulfonamido)azetidine-3-carboxamide] had a pIC50 of 7.00 to 7.30.

As to `CCC(=O)N1CC(NS(=O)(=O)c2ccc(OCc3cc(C)nc4ccccc34)cc2)(C(=O)NO)C1` [Example 7g, N-hydroxy-3-((4-((2-methylquinolin-4-yl)methoxy)phenyl)sulfonamido)-1-propionylazetidine-3-carboxamide], the pIC50 is > 7.30.

`CCCC(=O)N1CC(NS(=O)(=O)c2ccc(OCc3cc(C)nc4ccccc34)cc2)(C(=O)NO)C1` [Example 7h, 1-butyryl-N-hydroxy-3-((4-((2-methylquinolin-4-yl)methoxy)phenyl)sulfonamido)azetidine-3-carboxamide]: the pIC50 was > 7.30.

Consider `CCCCC(=O)N1CC(NS(=O)(=O)c2ccc(OCc3cc(C)nc4ccccc34)cc2)(C(=O)NO)C1` [Example 7i, N-hydroxy-3-((4-((2-methylquinolin-4-yl)methoxy)phenyl)sulfonamido)-1-pentanoylazetidine-3-carboxamide], for which the pIC50 was > 7.30.

As for `CC(=O)N1CC(NS(=O)(=O)c2ccc(OCc3cc(C)nc4ccccc34)cc2)(C(=O)NO)C1` [Example 8, 1-acetyl-N-hydroxy-3-((4-((2-methylquinolin-4-yl)methoxy)phenyl)sulfonamido) azetidine-3-carboxamide], the pIC50 was > 7.30.

As to `Cc1cc(COc2ccc(S(=O)(=O)NC3(CC(=O)NO)CN(C(=O)N4CCCCC4)C3)cc2)c2ccccc2n1` [Example 9, N-hydroxy-2-(3-((4-((2-methylquinolin-4-yl)methoxy)phenyl)sulfonamido)-1-(piperidine-1-carbonyl)azetidin-3-yl)acetamide], the pIC50 is > 7.30.

Take `Cc1cc(COc2ccc(S(=O)(=O)NC3(CC(=O)NO)CN(C(=O)CN4CCCCC4)C3)cc2)c2ccccc2n1` [Example 12, N-hydroxy-2-(3-((4-((2-methylquinolin-4-yl)methoxy)phenyl)sulfonamido)-1-(2-(piperidin-1-yl)acetyl)azetidin-3-yl)acetamide]: the pIC50 is > 7.30.
